Legend:
[1] = system: SK-GT-4 (Esophageal Adenocarcinoma); assay: combination Emax (second highest fraction inhibited in the dose matrix, 72 h); higher = more inhibition; extreme values may be limits of the assay
Summary of the method: (§1)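 After 24 hours at 37°C and 5% CO2 in 1536-well plates, cells in DMEM/F12 or RPMI plus 10% FBS received two-drug dose matrices for 72 hours. Viability came from CellTiter-Glo 2.0 luminescence and was scaled as inhibition, anchored at 0 by vehicle wells and at 1 by blank wells. Combination Emax is taken as the second-highest inhibition in the matrix, and Bliss excess as the observed combination effect less EA + EB − EA·EB, with EA and EB the single-agent effects.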

[2] = system: NCI-H520 (Squamous Cell Lung Carcinoma); assay: as above
Summary of the method: as §1

[3] = system: DMS-114 (Small Cell Lung Carcinoma); assay: as above
Summary of the method: as §1

[4] = system: VMRC-RCZ (Kidney Carcinoma); assay: as above
Summary of the method: as §1

[5] = system: KU812 (Chronic Myelogenous Leukemia); assay: as above
Summary of the method: as §1

SJSA-1 (Osteosarcoma) [6] = assay: as above
Summary of the method: as §1

[7] = system: COR-L279 (Small Cell Lung Carcinoma); assay: as above
Summary of the method: as §1

[8] = system: CW-2 (Colorectal Carcinoma); assay: as above
Summary of the method: as §1

[9] = system: T-T (Esophageal Squamous Cell Carcinoma); assay: as above
Summary of the method: as §1

M059J (Glioblastoma) [10] = assay: as above
Summary of the method: as §1

NCI-H2731 (Mesothelioma) [11] = assay: as above
Summary of the method: as §1

[12] = system: NCI-H929 (Plasma Cell Myeloma); assay: as above
Summary of the method: as §1

[13] = system: MOG-G-CCM (Low Grade Glioma); assay: as above
Summary of the method: as §1

[14] = system: NCI-H526 (Small Cell Lung Carcinoma); assay: as above
Summary of the method: as §1

[15] = system: OCI-AML3 (Acute Myeloid Leukemia); assay: as above
Summary of the method: as §1

[16] = system: KYSE-270 (Esophageal Squamous Cell Carcinoma); assay: as above
Summary of the method: as §1

[17] = system: MN-60 (B-Lymphoblastic Leukemia); assay: as above
Summary of the method: as §1

[18] = system: NCI-H3122 (Lung Adenocarcinoma); assay: as above
Summary of the method: as §1

[19] = system: ST486 (Burkitt's Lymphoma); assay: as above
Summary of the method: as §1

[20] = system: NCCIT (Other Solid Carcinomas); assay: as above
Summary of the method: as §1

[21] = system: SK-GT-4 (Esophageal Adenocarcinoma); assay: Bliss excess, mean over the matrix (fraction); higher = more synergy
Summary of the method: as §1

[22] = system: NCI-H520 (Squamous Cell Lung Carcinoma); assay: as above
Summary of the method: as §1

[23] = system: DMS-114 (Small Cell Lung Carcinoma); assay: as above
Summary of the method: as §1

[24] = system: VMRC-RCZ (Kidney Carcinoma); assay: as above
Summary of the method: as §1

[25] = system: KU812 (Chronic Myelogenous Leukemia); assay: as above
Summary of the method: as §1

SJSA-1 (Osteosarcoma) [26] = assay: as above
Summary of the method: as §1

[27] = system: COR-L279 (Small Cell Lung Carcinoma); assay: as above
Summary of the method: as §1

[28] = system: CW-2 (Colorectal Carcinoma); assay: as above
Summary of the method: as §1

[29] = system: T-T (Esophageal Squamous Cell Carcinoma); assay: as above
Summary of the method: as §1

M059J (Glioblastoma) [30] = assay: as above
Summary of the method: as §1

NCI-H2731 (Mesothelioma) [31] = assay: as above
Summary of the method: as §1

[32] = system: NCI-H929 (Plasma Cell Myeloma); assay: as above
Summary of the method: as §1

[33] = system: MOG-G-CCM (Low Grade Glioma); assay: as above
Summary of the method: as §1

[34] = system: NCI-H526 (Small Cell Lung Carcinoma); assay: as above
Summary of the method: as §1

[35] = system: OCI-AML3 (Acute Myeloid Leukemia); assay: as above
Summary of the method: as §1

[36] = system: KYSE-270 (Esophageal Squamous Cell Carcinoma); assay: as above
Summary of the method: as §1

[37] = system: MN-60 (B-Lymphoblastic Leukemia); assay: as above
Summary of the method: as §1

[38] = system: NCI-H3122 (Lung Adenocarcinoma); assay: as above
Summary of the method: as §1

[39] = system: ST486 (Burkitt's Lymphoma); assay: as above
Summary of the method: as §1

[40] = system: NCCIT (Other Solid Carcinomas); assay: as above
Summary of the method: as §1
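Throughout, for Bliss excess, mean over the matrix: after 72 h of two-drug dosing.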

| SMILES | combination Emax [1] | combination Emax [2] | combination Emax [3] | combination Emax [4] | combination Emax [5] | combination Emax (SJSA-1 (Osteosarcoma) [6]) | combination Emax [7] | combination Emax [8] | combination Emax [9] | combination Emax (M059J (Glioblastoma) [10]) | combination Emax (NCI-H2731 (Mesothelioma) [11]) | combination Emax [12] | combination Emax [13] | combination Emax [14] | combination Emax [15] | combination Emax [16] | combination Emax [17] | combination Emax [18] | combination Emax [19] | combination Emax [20] | Bliss excess [21] | Bliss excess [22] | Bliss excess [23] | Bliss excess [24] | Bliss excess [25] | Bliss excess (SJSA-1 (Osteosarcoma) [26]) | Bliss excess [27] | Bliss excess [28] | Bliss excess [29] | Bliss excess (M059J (Glioblastoma) [30]) | Bliss excess (NCI-H2731 (Mesothelioma) [31]) | Bliss excess [32] | Bliss excess [33] | Bliss excess [34] | Bliss excess [35] | Bliss excess [36] | Bliss excess [37] | Bliss excess [38] | Bliss excess [39] | Bliss excess [40] |
| --- | --- | --- | --- | --- | --- | --- | --- | --- | --- | --- | --- | --- | --- | --- | --- | --- | --- | --- | --- | --- | --- | --- | --- | --- | --- | --- | --- | --- | --- | --- | --- | --- | --- | --- | --- | --- | --- | --- | --- | --- |
| C=CCn1c(=O)c2cnc(Nc3ccc(N4CCN(C)CC4)cc3)nc2n1-c1cccc(C(C)(C)O)n1 [AZD1775] + Nc1ccn([C@@H]2O[C@H](CO)[C@@H](O)C2(F)F)c(=O)n1 [Gemcitabine] (first compound max 1 µM, partner max 0.3 µM) | 0.44 | 0.871 | 0.643 | 0.481 | 0.836 | 0.656 | 0.987 | 0.559 | 0.521 | 0.802 | 0.533 | 0.906 | 0.778 | 0.968 | 0.95 | 0.983 | 0.653 | 0.803 | 0.985 | 0.899 | 0.006 | 0.0314 | 0.0581 | 0.0417 | -0.0107 | -0.0822 | 0.0556 | -0.0511 | 0.0692 | 0.0175 | 0.0305 | 0.0302 | 0.0455 | 0.0642 | 0.0084 | 0.0411 | -0.0157 | -0.0379 | 0.0019 | 0.0864 |
| CN(CCO)CC[C@H](CSc1ccccc1)Nc1ccc(S(=O)(=O)NC(=O)c2ccc(N3CCC([C@@H](O)c4ccccc4-c4ccc(Cl)cc4)CC3)cc2)cc1S(=O)(=O)C(F)(F)F [AZD4320] + Nc1ccn([C@@H]2O[C@H](CO)[C@@H](O)C2(F)F)c(=O)n1 [Gemcitabine] (first compound max 1 µM, 7x7, partner max 0.3 µM) | 0.31 | 0.894 | 0.524 | 0.589 | 0.954 | 0.952 | 1 | 0.557 | 0.476 | 0.837 | 0.44 | 0.9 | 0.597 | 0.993 | 0.984 | 0.89 | 0.493 | 0.846 | 0.972 | 0.187 | -0.0288 | -0.0178 | 0.0444 | 0.0103 | -0.0788 | 0.0439 | 0.0843 | -0.058 | 0.0546 | -0.0021 | 0.0222 | -0.0176 | -0.0629 | 0.0952 | 0.0034 | -0.0293 | -0.0618 | -0.0298 | -0.0194 | -0.0058 |
| Cc1c2c(nn1C)CSCc1cc(n(C)n1)CSc1cc(c3ccccc3c1)OCCCc1c(C(=O)O)n(C)c3c-2c(Cl)ccc13 [AZD5991] + Nc1ccn([C@@H]2O[C@H](CO)[C@@H](O)C2(F)F)c(=O)n1 [Gemcitabine] (first compound max 1 µM, 7x7, partner max 0.3 µM) | 0.31 | 0.811 | 0.908 | 0.392 | 0.842 | 0.725 | 0.975 | 0.613 | 0.929 | 0.681 | 0.358 | 1 | 0.523 | 0.914 | 1 | 0.965 | 0.518 | 0.922 | 0.904 | 0.725 | -0.042 | -0.0389 | 0.07 | -0.001 | -0.0709 | -0.0319 | -0.012 | -0.0677 | 0.058 | -0.0325 | -0.0359 | 0.0087 | -0.0059 | 0.0249 | 0.0245 | -0.0129 | -0.0611 | 0.0092 | 0.0089 | -0.0617 |

— the supplement of paper PMC11061612
